Results: patent publication US20140288069A1, “AMINO-SUBSTITUTED IMIDAZOPYRIDAZINES AS MKNK1 KINASE INHIBITORS” (Bayer Intellectual Property GmbH, priority 2011, published 2014)

Each compound was assayed against T1, human full-length MKNK1 (Homo sapiens, UniProt Q9BUB5, T385D) (assay: MKNK1 kinase high ATP assay (TR-FRET-based)). Settings: final ATP 2 mM, 15 min pre-incubation with MKNK1, GST-MKNK1 (T344D).
T1 construct: GST (N); purchased Carna Biosciences 02-145; host or cells: insect cells (baculovirus)
Type: biochemical
Source text: A recombinant fusion protein of Glutathione-S-Transferase (GST, N-terminally) and human full-length MKNK1 (amino acids 1-424 and T344D of accession number BAA 19885.1), expressed in insect cells using baculovirus expression system and purified via glutathione sepharose affinity chromatography, was purchased from Carna Biosciences (product no 02-145) and used as enzyme. As substrate for the kinase reaction the biotinylated peptide biotin-Ahx-[sequence] (C-terminus in amide form) was used, which can be purchased e.g. from the company Biosyntan (Berlin-Buch, Germany).
For the assay 50 nl nL of a 100 fold concentrated solution of the test compound in DMSO was pipetted into a black low volume 384 well microtiter plate (Greiner Bio-One, Frickenhausen, Germany), 2 μL of a solution of MKNK1 in aqueous assay buffer [50 mM HEPES pH 7.5, 5 mM magnesium chloride, 1.0 mM dithiothreitol, 0.005% (v/v) Nonidet-P40 (Sigma)] was added and the mixture was incubated for 15 min at 22° C. to allow pre-binding of the test compounds to the enzyme before the start of the kinase reaction. Then the kinase reaction was started by the addition of 3 μL of a solution of adenosine-tri-phosphate (ATP, 3.3 mM=>final conc. in the 5 μL assay volume is 2 mM) and substrate (0.1 μM=>final conc. in the 5 μL assay volume is 0.06 μM) in assay buffer and the resulting mixture was incubated for a reaction time of 30 min at 22° C. The concentration of MKNK1 was adjusted depending of the activity of the enzyme lot and was chosen appropriate to have the assay in the linear range, typical concentrations were in the range of 0.003 μg/mL. The reaction was stopped by the addition of 5 μL of a solution of TR-FRET detection reagents (5 nM streptavidine-XL665 [Cisbio Bioassays, Codolet, France] and 1 nM anti-ribosomal protein S6 (pSer236)-antibody from Invitrogen [#44921G] and 1 nM LANCE EU-W1024 labeled ProteinG [Perkin-Elmer, product no. 4D0071]) in an aqueous EDTA-solution (100 mM EDTA, 0.1% (w/v) bovine serum albumin in 50 mM HEPES pH 7.5).
The resulting mixture was incubated for 1 h at 22° C. to allow the formation of complex between the phosphorylated biotinylated peptide and the detection reagents. Subsequently the amount of phosphorylated substrate was evaluated by measurement of the resonance energy transfer from the Eu-chelate to the streptavidine-XL. Therefore, the fluorescence emissions at 620 nm and 665 nm after excitation at 350 nm were measured in a TR-FRET reader, e.g. a Rubystar (BMG Labtechnologies, Offenburg, Germany) or a Viewlux (Perkin-Elmer). The ratio of the emissions at 665 nm and at 622 nm was taken as the measure for the amount of phosphorylated substrate.

T1 sequence (Q9BUB5 1-424 isoform Q9BUB5-2 T344D): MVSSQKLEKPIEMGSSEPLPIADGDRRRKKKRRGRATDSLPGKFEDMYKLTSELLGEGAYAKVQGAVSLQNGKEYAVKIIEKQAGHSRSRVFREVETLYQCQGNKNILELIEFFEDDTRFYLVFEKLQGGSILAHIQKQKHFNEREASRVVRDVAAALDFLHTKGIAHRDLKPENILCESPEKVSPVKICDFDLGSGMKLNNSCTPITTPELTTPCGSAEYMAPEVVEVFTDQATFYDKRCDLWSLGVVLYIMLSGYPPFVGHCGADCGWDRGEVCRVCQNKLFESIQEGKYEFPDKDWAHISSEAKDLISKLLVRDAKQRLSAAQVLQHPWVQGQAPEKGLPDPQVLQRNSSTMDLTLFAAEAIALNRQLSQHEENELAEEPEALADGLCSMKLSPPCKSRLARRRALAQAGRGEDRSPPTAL

Row | SMILES | IC50 [nM]
1 | CCC(O)CNc1ccc2ncc(-c3cc4ccccc4o3)n2n1 (centres unmarked) [Example 29, 1-{[3-(1-Benzofuran-2-yl)imidazo[1,2-b]pyridazin-6-yl]amino}butan-2-ol] | 6
2 | CCC(O)CNc1ccc2ncc(-c3cc4c(OC)nccc4o3)n2n1 (centres unmarked) [Example 30, 1-{[3-(4-Methoxyfuro[3,2-c]pyridin-2-yl)imidazo[1,2-b]pyridazin-6-yl]amino}butan-2-ol] | 6
3 | OC(CNc1ccc2ncc(-c3cc4ccccc4o3)n2n1)c1ccc(F)cc1 (centres unmarked) [Example 41, 2-{[3-(1-Benzofuran-2-yl)imidazo[1,2-b]pyridazin-6-yl]amino}-1-(4-fluoro-phenyl)ethanol] | 41
4 | CN(C)CCNc1ccc2ncc(-c3cc4ccccc4o3)n2n1 [Example R7, N′-[3-(1-Benzofuran-2-yl)imidazo[1,2-b]pyridazin-6-yl]-N,N-dimethylethane-1,2-diamine, reference compound] | 13
5 | c1ccc(Nc2ccc3ncc(-c4ccncc4)n3n2)cc1 [Example R2, N-Phenyl-3-(pyridin-4-yl)imidazo-[1,2-b]-pyridazin-6-amine, reference compound] | 170
6 | OC(CNc1ccc2ncc(-c3cc4ccccc4o3)n2n1)CN1CCCC1 (centres unmarked) [Example 40, 1-{[3-(1-Benzofuran-2-yl)imidazo[1,2-b]pyridazin-6-yl]amino}-3-(pyrrolidin-1-yl)propan-2-ol] | 38
7 | CC(C)C(O)CNc1ccc2ncc(-c3cc4ccccc4o3)n2n1 (centres unmarked) [Example 33, 1-{[3-(1-Benzofuran-2-yl)imidazo[1,2-b]pyridazin-6-yl]amino}-3-methylbutan-2-ol] | 21
8 | NCC(O)CNc1ccc2ncc(-c3cc4ccccc4o3)n2n1 (centres unmarked) [Example 31, 1-Amino-3-{[3-(1-benzofuran-2-yl)imidazo[1,2-b]pyridazin-6-yl]amino}propan-2-ol] | 8
9 | OC(CNc1ccc2ncc(-c3cc4ccccc4o3)n2n1)C1CC1 (single isomer, unassigned; (+)) [Example 23, (+)-2-{[3-(1-Benzofuran-2-yl)imidazo[1,2-b]pyridazin-6-yl]amino}-1-cyclopropylethanol] | 27
10 | OC(CNc1ccc2ncc(-c3cc4ccccc4o3)n2n1)C1CC1 (single isomer, unassigned; (-)) [Example 24, (−)-2-{[3-(1-Benzofuran-2-yl)imidazo[1,2-b]pyridazin-6-yl]amino}-1-cyclopropylethanol] | 1
11 | O=C1CCCN1CC(O)CNc1ccc2ncc(-c3cc4ccccc4o3)n2n1 (centres unmarked) [Example 36, 1-(3-{[3-(1-Benzofuran-2-yl)imidazo[1,2-b]pyridazin-6-yl]amino}-2-hydroxy-propyl)pyrrolidin-2-one] | 26
12 | COc1nccc2oc(-c3cnc4ccc(NCC(O)C5CCOCC5)nn34)cc12 (centres unmarked) [Example 32, 2-{[3-(4-Methoxyfuro[3,2-c]pyridin-2-yl)imidazo[1,2-b]pyridazin-6-yl]amino}-1-(tetrahydro-2H-pyran-4-yl)ethanol] | 18
13 | c1ccc(CNc2ccc3ncc(-c4ccncc4)n3n2)cc1 [Example R1, N-Benzyl-3-(pyridin-4-yl)imidazo[1,2-b]pyridazin-6-amine, reference compound] | 370
14 | COc1nccc2oc(-c3cnc4ccc(NC[C@@H](O)c5ccccc5)nn34)cc12 [Example 35, (1S)-2-{[3-(4-Methoxyfuro[3,2-c]pyridin-2-yl)imidazo[1,2-b]pyridazin-6-yl]-amino}-1-phenylethanol] | 25
15 | CC(C)(C)C(O)CNc1ccc2ncc(-c3cc4ccccc4o3)n2n1 (centres unmarked) [Example 34, 1-{[3-(1-Benzofuran-2-yl)imidazo[1,2-b]pyridazin-6-yl]amino}-3,3-dimethylbutan-2-ol] | 21
16 | COc1nccc2oc(-c3cnc4ccc(NC[C@H](O)c5ccccc5)nn34)cc12 [Example 28, (1R)-2-{[3-(4-Methoxyfuro[3,2-c]pyridin-2-yl)imidazo[1,2-b]pyridazin-6-yl]amino}-1-phenylethanol] | 5
17 | OC(CNc1ccc2ncc(-c3cc4ccccc4o3)n2n1)CN1CCOCC1 (centres unmarked) [Example 38, 1-{[3-(1-Benzofuran-2-yl)imidazo[1,2-b]pyridazin-6-yl]amino}-3-(morpholin-4-yl)propan-2-ol] | 32
18 | OC(CNc1ccc2ncc(-c3cc4ccccc4o3)n2n1)C1CCOCC1 (single isomer, unassigned; (-)) [Example 26, (−)-2-{[3-(1-Benzofuran-2-yl)imidazo[1,2-b]pyridazin-6-yl]amino}-1-(tetrahydro-2H-pyran-4-yl)] | 2
19 | c1ccc(CCNc2ccc3ncc(-c4cc5ccccc5o4)n3n2)nc1 [Example R6, 3-(1-Benzofuran-2-yl)-N-[2-(pyridin-2-yl)ethyl]imidazo[1,2-b]pyridazin-6-amine, reference compound] | 250
20 | OC(CNc1ccc2ncc(-c3cc4ccccc4o3)n2n1)C1CCCCC1 (centres unmarked) [Example 37, 2-{[3-(1-Benzofuran-2-yl)imidazo[1,2-b]pyridazin-6-yl]amino}-1-cyclohexylethanol] | 29
21 | OC(CNc1ccc2ncc(-c3cc4ccccc4o3)n2n1)CN1CCCCC1 (centres unmarked) [Example 39, 1-{[3-(1-Benzofuran-2-yl)imidazo[1,2-b]pyridazin-6-yl]amino}-3-(piperidin-1-yl)propan-2-ol] | 37
22 | COc1nccc2oc(-c3cnc4ccc(NCC(O)C5CC5)nn34)cc12 (centres unmarked) [Example 27, 1-Cyclopropyl-2-{[3-(4-methoxyfuro[3,2-c]pyridin-2-yl)imidazo[1,2-b]pyridazin-6-yl]amino}ethanol] | 4
23 | OC(CNc1ccc2ncc(-c3cc4ccccc4o3)n2n1)C1CCOCC1 (single isomer, unassigned; (+)) [Example 25, (+)-2-{[3-(1-Benzofuran-2-yl)imidazo[1,2-b]pyridazin-6-yl]amino}-1-(tetrahydro-2H-pyran-4-yl)] | 7
24 | c1ccc2oc(-c3cnc4ccc(NCc5ccncc5)nn34)cc2c1 [Example R8, 3-(1-Benzofuran-2-yl)-N-(pyridin-4-ylmethyl)imidazo[1,2-b]pyridazin-6-amine, reference compound] | 34
25 | c1cc(Nc2ccc3ncc(-c4ccncc4)n3n2)ccn1 [Example R4, N,3-Di(pyridin-4-yl)-imidazo-[1,2-b]-pyridazin-6-amine, reference compound] | 810
26 | c1cc(-c2cnc3ccc(NC4CCOCC4)nn23)ccn1 [Example R5, 3-(Pyridin-4-yl)-N-(tetra-hydro-2H-pyran-4-yl)-imidazo-[1,2-b]-pyridazin-6-amine, reference compound] | 480

Each compound was assayed against T2, human full-lengt MKNK1 (Homo sapiens, UniProt Q9BUB5, T385D) (assay: MKNK1 kinase assay (MKNK1 TR-FRET assay)). Settings: final ATP 10 μM, 15 min pre-incubation, GST-MKNK1 (T344D).
T2 construct: GST (N); purchased Carna Biosciences 02-145; host or cells: insect cells (baculovirus)
Type: biochemical
Procedure: MKNK1-inhibitory activity of compounds of the present invention was quantified employing the MKNK1 TR-FRET assay as described in the following paragraphs.
As substrate for the kinase reaction the biotinylated peptide biotin-Ahx-[sequence] (C-terminus in amide form) was used which can be purchased e.g. form the company Biosyntan (Berlin-Buch, Germany).
For the assay 50 mL of a 100 fold concentrated solution of the test compound in DMSO was pipetted into a black low volume 384 well microtiter plate (Greiner Bio-One, Frickenhausen, Germany), 2 μL of a solution of MKNK1 in aqueous assay buffer [50 mM HEPES pH 7.5, 5 mM magnesium chloride, 1.0 mM dithiothreitol, 0.005% (v/v) Nonidet-P40 (Sigma)] was added and the mixture was incubated for 15 min at 22° C. to allow pre-binding of the test compounds to the enzyme before the start of the kinase reaction. […] The concentration of MKNK1 was adjusted depending of the activity of the enzyme lot and was chosen appropriate to have the assay in the linear range, typical concentrations were in the range of 0.05 μg/ml. The reaction was stopped by the addition of 5 μL of a solution of TR-FRET detection reagents (5 nM streptavidine-XL665 [Cisbio Bioassays, Codalet, France] and 1 nM anti-ribosomal protein S6 (pSer236)-antibody from Invitrogen [#44921G] and 1 nM LANCE EU-W1024 labeled ProteinG [Perkin-Elmer, product no. 4D0071]) in an aqueous EDTA-solution (100 mM EDTA, 0.1% (w/v) bovine serum albumin in 50 mM HEPES pH 7.5).
The resulting mixture was incubated for 1 h at 22° C. to allow the formation of complex between the phosphorylated biotinylated peptide and the detection reagents. Subsequently the amount of phosphorylated substrate was evaluated by measurement of the resonance energy transfer from the Eu-chelate to the streptavidine-XL.

T2 sequence (Q9BUB5 1-424 isoform Q9BUB5-2 T344D): as above

Row | SMILES | IC50 [nM]
27 | CN(C)CCNc1ccc2ncc(-c3cc4ccccc4o3)n2n1 [Example R7, N′-[3-(1-Benzofuran-2-yl)imidazo[1,2-b]pyridazin-6-yl]-N,N-dimethylethane-1,2-diamine, reference compound] | 11
28 | c1ccc(Nc2ccc3ncc(-c4ccncc4)n3n2)cc1 [Example R2, N-Phenyl-3-(pyridin-4-yl)imidazo-[1,2-b]-pyridazin-6-amine, reference compound] | 64
29 | O[C@@H](CNc1ccc2ncc(-c3cc4ccccc4o3)n2n1)c1cccnc1 [Example 20, (1R)-2-{[3-(1-Benzofuran-2-yl)imidazo[1,2-b]pyridazin-6-yl]amino}-1-(pyridin-3-yl)ethanol] | 1
30 | OC[C@H](O)CNc1ccc2ncc(-c3cc4ccccc4o3)n2n1 [Example 16, (2R)-3-{[3-(1-Benzofuran-2-yl)imidazo[1,2-b]pyridazin-6-yl]amino}propane-1,2-diol] | 4
31 | CC(O)(CNc1ccc2ncc(-c3cc4ccccc4o3)n2n1)c1ccccc1 (centres unmarked) [Example 21, 1-{[3-(1-Benzofuran-2-yl)imidazo[1,2-b]pyridazin-6-yl]amino}-2-phenylpropan-2-ol] | 60
32 | OC[C@@H](O)CNc1ccc2ncc(-c3cc4ccccc4o3)n2n1 [Example 17, (2S)-3-{[3-(1-Benzofuran-2-yl)-imidazo-[1,2-b]-pyridazin-6-yl]amino}-propane-1,2-diol] | 13
33 | OCCNc1ccc2ncc(-c3cc4ccccc4o3)n2n1 [Example 13, 2-{[3-(1-Benzofuran-2-yl)imidazo[1,2-b]pyridazin-6-yl]amino}ethanol] | 6
34 | c1ccc(CNc2ccc3ncc(-c4ccncc4)n3n2)cc1 [Example R1, N-Benzyl-3-(pyridin-4-yl)imidazo[1,2-b]pyridazin-6-amine, reference compound] | 181
35 | O[C@@H](CNc1ccc2ncc(-c3cc4ccccc4o3)n2n1)c1ccccc1 [Example 18, (1R)-2-{[3-(1-Benzofuran-2-yl)imidazo[1,2-b]pyridazin-6-yl]amino}-1-phenylethanol] | 1
36 | OC(CCNc1ccc2ncc(-c3cc4ccccc4o3)n2n1)c1ccc(F)cc1 (centres unmarked) [Example 15, 3-{[3-(1-Benzofuran-2-yl)-imidazo-[1,2-b]-pyridazin-6-yl]-amino}-1-(4-fluoro-phenyl)-propan-1-ol] | 32
37 | OCCCNc1ccc2ncc(-c3cc4ccccc4o3)n2n1 [Example 14, 3-{[3-(1-Benzofuran-2-yl)imidazo[1,2-b]pyridazin-6-yl]amino}propan-1-ol] | 7
38 | c1ccc(CCNc2ccc3ncc(-c4cc5ccccc5o4)n3n2)nc1 [Example R6, 3-(1-Benzofuran-2-yl)-N-[2-(pyridin-2-yl)ethyl]imidazo[1,2-b]pyridazin-6-amine, reference compound] | 17
39 | O[C@H](CNc1ccc2ncc(-c3cc4ccccc4o3)n2n1)c1ccccc1 [Example 19, (1S)-2-{[3-(1-Benzofuran-2-yl)imidazo[1,2-b]pyridazin-6-yl]amino}-1-phenylethanol] | 22
40 | c1ccc2oc(-c3cnc4ccc(NCc5ccncc5)nn34)cc2c1 [Example R8, 3-(1-Benzofuran-2-yl)-N-(pyridin-4-ylmethyl)imidazo[1,2-b]pyridazin-6-amine, reference compound] | 23
41 | CC[C@@H](CO)Nc1ccc2ncc(-c3cc4ccccc4o3)n2n1 [Example 4, (2S)-2-{[3-(1-Benzofuran-2-yl)-imidazo[1,2-b]-pyridazin-6-yl]-amino}butan-1-ol] | 15
42 | OC(CNc1ccc2ncc(-c3cc4ccccc4o3)n2n1)c1ccccn1 (centres unmarked) [Example 22, 2-{[3-(1-Benzofuran-2-yl)imidazo[1,2-b]pyridazin-6-yl]amino}-1-(pyridin-2-yl)ethanol] | 5
43 | c1cc(Nc2ccc3ncc(-c4ccncc4)n3n2)ccn1 [Example R4, N,3-Di(pyridin-4-yl)-imidazo-[1,2-b]-pyridazin-6-amine, reference compound] | 245
44 | c1cc(-c2cnc3ccc(NC4CCOCC4)nn23)ccn1 [Example R5, 3-(Pyridin-4-yl)-N-(tetra-hydro-2H-pyran-4-yl)-imidazo-[1,2-b]-pyridazin-6-amine, reference compound] | 192
